In assay [1] the target is T1, cardiac troponin C (cTnC) (Homo sapiens, UniProt P63316, C35S/C84S). The assay is described as follows: 2D [1H, […]]-HSQC NMR titration. Format: binding.
Assay [2] concerns the target T1, cardiac troponin C (cTnC). The assay is described as follows: 2D [1H, […]]-HSQC NMR titration. The class given is binding. This is another data set of the same source.

Molecules are shown by their SMILES.

`Clc1cccc(Nc2ccccc2)c1` [3-Cl-DPA, 3-Chlorodiphenylamine] registered a Kd in assay [1] of 6 ± 1 µM.
As to `CC(C)COCC(CN(Cc1ccccc1)c1ccccc1)N1CCCC1` (centres unmarked) [bepridil], the “2D [1H,15N]-HSQC NMR titration” value in assay [2] is reported as “As bepridil is titrated into cTnC, NMR signals corresponding to the cNTnC domain move as the conformational equilibrium shifts”.

The record behind these values is PMC6314390 (The Journal of General Physiology, 2019).
